The subject of data set [1] is Ent. cloacae MA2646. The data set is described as follows: in vitro antibacterial activity, microtitration dilution (MIC), Ent. cloacae MA2646. It counts as cell-based. Conditions: Enterobacter cloacae, read-out: minimum inhibiting concentration (MIC). The gist of the method: (§1)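 Microtitration dilution method used to obtain minimum inhibitory concentrations, expressed as μg/mL.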

The subject of data set [2] is Esch. coli Vogel. The data set is described as follows: in vitro antibacterial activity, microtitration dilution (MIC), Esch. coli Vogel. It counts as cell-based. Particulars: Escherichia coli, read-out: minimum inhibiting concentration (MIC). The method, boiled down:
as §1

Data set [3] deals with Klebs. pneumoniae MGH-2. The data set is described as follows: in vitro antibacterial activity, microtitration dilution (MIC), Klebs. pneumoniae MGH-2. Type of data set: cell-based. Particulars: Klebsiella pneumoniae, MGH2, read-out: minimum inhibiting concentration (MIC). The gist of the method:
as §1

For data set [4], the system named is Prot. rettgeri M 1771. The data set is described as follows: in vitro antibacterial activity, microtitration dilution (MIC), Prot. rettgeri M 1771. Type of data set: cell-based. Conditions: Providencia rettgeri, M1771, read-out: minimum inhibiting concentration (MIC). The gist of the method:
as §1

Data set [5] concerns Pseud. aeruginosa UI-18. The data set is described as follows: in vitro antibacterial activity, microtitration dilution (MIC), Pseud. aeruginosa UI-18. Particulars: Pseudomonas aeruginosa, UI18, read-out: minimum inhibiting concentration (MIC). Type of data set: cell-based. The method, boiled down: as §1
In data set [6] the test system is Staph. aureus H 228. The experiment in a line: in vitro antibacterial activity, microtitration dilution (MIC), Staph. aureus H 228. Particulars: Staphylococcus aureus, H228, read-out: minimum inhibiting concentration (MIC). It counts as cell-based. The gist of the method:
as §1

The test system of data set [7] is Staph. aureus UC-76. The data set is described as follows: in vitro antibacterial activity, microtitration dilution (MIC), Staph. aureus UC-76. Type of data set: cell-based. Particulars: Staphylococcus aureus, UC76, read-out: minimum inhibiting concentration (MIC). The method, boiled down: as §1
Data set [8] relates to Strep. faecalis MGH-2. The data set is described as follows: in vitro antibacterial activity, microtitration dilution (MIC), Strep. faecalis MGH-2. Conditions: Enterococcus faecalis, MGH2, read-out: minimum inhibiting concentration (MIC). Type of data set: cell-based. The method, boiled down: as §1
Data set [9] relates to Strep. pheumoniae SV-1. The data set is described as follows: in vitro antibacterial activity, microtitration dilution (MIC), Strep. pneumoniae SV-1. It counts as cell-based. Conditions: Streptococcus pneumoniae, SV1, read-out: minimum inhibiting concentration (MIC). The gist of the method: as §1
Data set [10] relates to Strep. pyogenes C-203. The data set is described as follows: in vitro antibacterial activity, microtitration dilution (MIC), Strep. pyogenes C-203. Type of data set: cell-based. Particulars: Streptococcus pyogenes, C203, read-out: minimum inhibiting concentration (MIC). The gist of the method:
as §1

Data set [11] relates to Esch. coli Vogel. The data set is described as follows: median protective dose in mice given lethal systemic infections, Esch. coli Vogel. Type of data set: in vivo. Conditions: Escherichia coli, single dose at time of challenge, read-out: median protective dose (PD50). The method, boiled down:
(§2)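 Mice given lethal systemic infections received single compound doses at time of challenge; PD50 (mg/kg) is the median protective dose.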

Data set [12] deals with Pseud. aeruginosa UI-18. The experiment in a line: median protective dose in mice given lethal systemic infections, Pseud. aeruginosa UI-18. Conditions: Pseudomonas aeruginosa, single dose at time of challenge, read-out: median protective dose (PD50). Type of data set: in vivo. Here is the method: (§3) The in vivo activity is obtained when the compounds are tested according to the procedure of Miller, et al (Proc. Soc. Exp. Biol. Med. 57, 261, 1944). The median protective dose (PD50) was determined in mice given lethal systemic infections. Single doses of compound were given at time of challenge.
(§4) By use of the above methods, the following minimum inhibiting concentration values (MICs in μg/mL), PD50 's in mg/kg, no effect phototoxicity dose in mg/kg and the cytotoxicity IC50 in μg/mL were obtained for representative enantiomers of the invention and compounds of the prior art as shown in the table.
(§5) The in vivo data as PD50 s are reported below the line of MICs for the same compound.

The subject of data set [13] is Strep. pheumoniae SV-1. The experiment in a line: median protective dose in mice given lethal systemic infections, Strep. pneumoniae SV-1. Type of data set: in vivo. Conditions: Streptococcus pneumoniae, single dose at time of challenge, read-out: median protective dose (PD50). The procedure:
as §3, §4, §5

Data set [14] has as its system Strep. pyogenes C-203. The experiment in a line: median protective dose in mice given lethal systemic infections, Strep. pyogenes C-203. Type of data set: in vivo. Conditions: Streptococcus pyogenes, single dose at time of challenge, read-out: median protective dose (PD50). The method, boiled down:
as §2

The nature of data set [15]: in vivo. More on the design: species or system mice. Particulars: mouse, po. The procedure:
The phototoxicity data is obtained using depilated mice. The compound was administered orally each day for four successive days, followed each day by 3 hours of UVA radiation. The mice were examined for any positive signs (redness, erythema) relative to control animals. The no effect dose and the 50% effect dose were determined. By use of the above methods, the following minimum inhibiting concentration values (MICs in μg/mL), PD50 's in mg/kg, no effect phototoxicity dose in mg/kg and the cytotoxicity IC50 in μg/mL were obtained for representative enantiomers of the invention and compounds of the prior art as shown in the table.

Data set [16] in a line: cytotoxicity, hamster V-79 cells, colony reduction. It counts as cell-based. Particulars: 3 hours treatment, colonies counted after 5 days, read-out: Cytotox (cytotoxicity IC50). The method, boiled down: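 Cells were grown overnight, exposed to drug for 3 h, washed and replated. Colonies were counted after 5 days, and IC50 was taken as the concentration reducing colonies by 50% versus control.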

Converted amounts (≈) assume the structure as drawn. Read-outs that look alike come from different tables or passages of the source.

As to `C[C@H]([C@@H]1CCN(c2nc3c(cc2F)c(=O)c(C(=O)O)cn3C2CC2)C1)N(C)C` [Example 72, 3R,1R-1-cyclopropyl-7-[3-[1-(dimethylamino)ethyl]-1-pyrrolidinyl]-6-fluoro-1,4,-dihydro-4-oxo-1,8-naphthyridine-3-carboxylic acid], the MIC in [1] worked out at 0.2 µg/mL (≈ 0.515 µM); in [2], 0.1 µg/mL (≈ 0.257 µM); in data set [3] it was 0.2 µg/mL (≈ 0.515 µM); in data set [4] it was 0.8 µg/mL (≈ 2.06 µM); in data set [5] it was 1.6 µg/mL (≈ 4.12 µM); in data set [6] it was 0.025 µg/mL (≈ 0.0644 µM). Also, the MIC in data set [7] worked out at 0.025 µg/mL (≈ 0.0644 µM); in [8], 0.1 µg/mL (≈ 0.257 µM); in [9], 0.025 µg/mL (≈ 0.0644 µM); in [10] it was 0.05 µg/mL (≈ 0.129 µM). In addition, the ED50 was found to be 1 mg/kg in data set [11] (PO); 1 mg/kg in data set [11] (SC); 17 mg/kg in data set [12] (UI18, PO); 11 mg/kg in data set [12] (UI18, SC); 2 mg/kg in data set [13] (SV1, PO); 2 mg/kg in data set [13] (SV1, SC). Besides, the ED50 in [14] (C203, PO) is 2 mg/kg; in data set [14] (C203, SC), 2 mg/kg. For the same molecule, in [15], the NOAEL at 96 h is less than 30 mg/kg. Moreover, in data set [16], the CC50 at 3 h worked out at 120 µg/mL (≈ 309 µM).
Regarding `C[C@H](N)[C@@H]1CCN(c2nc3c(cc2F)c(=O)c(C(=O)O)cn3C2CC2)C1` [Example 7, 3R,1S-1-cyclopropyl-6-fluoro-7-[3-(1-aminoethyl)-1-pyrrolidinyl]-1,4-dihydro-4-oxo-1,8-naphthyridine-3-carboxylic acid], the MIC stood at 0.025 µg/mL (≈ 0.0694 µM) in data set [1]; 0.025 µg/mL (≈ 0.0694 µM) in [2]; 0.05 µg/mL (≈ 0.139 µM) in [3]; 0.1 µg/mL (≈ 0.277 µM) in data set [4]; 0.4 µg/mL (≈ 1.11 µM) in [5]; 0.025 µg/mL (≈ 0.0694 µM) in [6]. Further, the MIC came to 0.025 µg/mL (≈ 0.0694 µM) in data set [8], 0.006 µg/mL (≈ 0.0166 µM) in data set [9] and 0.013 µg/mL (≈ 0.0361 µM) in data set [10]. In addition, the ED50 is 2 mg/kg in [11] (PO); 0.4 mg/kg in [11] (SC); 15 mg/kg in data set [12] (UI18, PO); 4 mg/kg in [12] (UI18, SC); 3 mg/kg in data set [13] (SV1, PO); 1 mg/kg in [13] (SV1, SC). Also, the ED50 amounted to 3 mg/kg in data set [14] (C203, PO) and 1 mg/kg in data set [14] (C203, SC). Also, the no-observed-adverse-effect level (NOAEL) at 96 h in data set [15] came out at 30 mg/kg. The CC50 at 3 h in data set [16] is 33 µg/mL (≈ 91.6 µM).
Take `C[C@H](N)[C@H]1CCN(c2nc3c(cc2F)c(=O)c(C(=O)O)cn3C2CC2)C1` [Example 6, 3S,1S-1-cyclopropyl-6-fluoro-7-[3-(1-aminoethyl)-1-pyrrolidinyl]-1,4-dihydro-4-oxo-1,8-naphthyridine-3-carboxylic acid]: the MIC in data set [1] amounted to 0.05 µg/mL (≈ 0.139 µM); in data set [2], 0.05 µg/mL (≈ 0.139 µM); in data set [3] it was 0.2 µg/mL (≈ 0.555 µM); in data set [4], 0.4 µg/mL (≈ 1.11 µM); in data set [5], 1.6 µg/mL (≈ 4.44 µM); in data set [6], 0.2 µg/mL (≈ 0.555 µM). The MIC in [7] stood at 0.025 µg/mL (≈ 0.0694 µM); in data set [8], 0.1 µg/mL (≈ 0.277 µM); in data set [9] it was 0.05 µg/mL (≈ 0.139 µM); in data set [10], 0.05 µg/mL (≈ 0.139 µM). In addition, the ED50 in [11] (PO) was found to be 8 mg/kg; in data set [11] (SC), 1 mg/kg; in data set [12] (UI18, PO), 96 mg/kg; in data set [12] (UI18, SC), 25 mg/kg; in data set [13] (SV1, PO), 28 mg/kg; in [13] (SV1, SC), 10 mg/kg. In addition, the NOAEL at 96 h in [15] was more than 100 mg/kg. The CC50 at 3 h in data set [16] was found to be 77 µg/mL (≈ 214 µM).

The term NOAEL denotes the highest tested level that showed no adverse finding.

Source of the values: US5563155A, “Individual stereosiomers of 7-[3-(aminoalkyl)-1-pyrrolidinyl]-quinolones and naphthyridones as antibacterial agents” (Warner-Lambert Company, priority 1995, dated 1996).
